According to PMC7050258, “Inhibition of MGAT2 modulates fat‐induced gut peptide release and fat intake in normal mice and ameliorates obesity and diabetes in ob/ob mice fed on a high‐fat diet” (FEBS Open Bio, 2020):
Several values for one entry are separate records, joined by “and”; a condition that tells them apart may be missing. Equal values may be shown once.

Key:
DGAT1 human = target: T1, DGAT1 human (Homo sapiens, UniProt O75907); experiment: in vitro inhibitory activity against DGAT1; assay type: biochemical
T1 sequence (O75907 1-488): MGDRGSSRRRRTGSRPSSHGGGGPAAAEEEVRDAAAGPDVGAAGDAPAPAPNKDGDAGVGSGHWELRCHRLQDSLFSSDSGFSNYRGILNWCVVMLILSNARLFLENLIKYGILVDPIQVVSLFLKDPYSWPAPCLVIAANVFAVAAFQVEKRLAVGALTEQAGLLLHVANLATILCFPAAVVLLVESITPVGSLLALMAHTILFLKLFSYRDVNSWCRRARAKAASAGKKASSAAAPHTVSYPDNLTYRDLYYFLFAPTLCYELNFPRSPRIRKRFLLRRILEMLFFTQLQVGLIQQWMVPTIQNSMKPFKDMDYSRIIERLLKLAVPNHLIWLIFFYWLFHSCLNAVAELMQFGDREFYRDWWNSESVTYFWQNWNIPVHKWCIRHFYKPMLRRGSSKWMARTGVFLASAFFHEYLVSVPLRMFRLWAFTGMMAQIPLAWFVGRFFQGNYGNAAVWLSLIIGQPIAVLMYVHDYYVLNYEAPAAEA
Experimental: (§1) CpdB, CpdA, and pioglitazone were synthesized at Takeda Pharmaceutical Co., Ltd. (Tokyo, Japan). The in vitro inhibitory activities of CpdB and CpdA against MGAT2 and related acyltransferases (DGAT1, DGAT2, and ACAT1) were evaluated as described in our previous report 17 and patent application 19. Liraglutide (Victoza) was purchased from Novo Nordisk Pharma Ltd. (Bagsvaerd, Denmark). All other chemicals were of analytical grade and purchased from Wako Pure Chemicals (Osaka, Japan).

DGAT2 human = target: T2, DGAT2 human (Homo sapiens, UniProt Q96PD7); experiment: in vitro inhibitory activity against DGAT2; assay type: biochemical
T2 sequence (Q96PD7 1-388): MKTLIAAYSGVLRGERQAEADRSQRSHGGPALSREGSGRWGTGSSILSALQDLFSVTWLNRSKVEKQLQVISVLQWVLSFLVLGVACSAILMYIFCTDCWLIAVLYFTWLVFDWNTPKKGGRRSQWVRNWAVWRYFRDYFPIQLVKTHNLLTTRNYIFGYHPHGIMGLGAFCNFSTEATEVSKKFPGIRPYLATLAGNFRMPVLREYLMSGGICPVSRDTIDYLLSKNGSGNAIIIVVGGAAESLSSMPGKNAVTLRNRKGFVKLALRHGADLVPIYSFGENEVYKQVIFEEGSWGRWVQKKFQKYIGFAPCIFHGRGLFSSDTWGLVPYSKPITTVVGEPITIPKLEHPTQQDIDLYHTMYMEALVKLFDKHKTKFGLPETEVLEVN
Experimental: as §1

C57BL/6J mice [1] = experiment: Oral meal tolerance test (MTT), plasma chylomicron TG; assay type: in vivo, mouse; conditions: for Plasma CM/TG AUC (0-4 h), AVE: mean, N=6; for Plasma CM/TG AUC (0-4 h), individual animal: single animal values
Experimental: Overnight‐fasted C57BL/6J mice underwent an MTT in the morning. Vehicle, CpdA (3, 10 mg·kg^−1), or Cpd B (3, 10 mg·kg^−1) was administered by gavage. The compound was suspended in 0.5% methylcellulose. […] Thirty minutes after injection, liquid meal (10 mL·kg^−1) comprising an admixture of corn oil and Ensure‐H (3 : 17 v/v) (Abbott Japan Co., Ltd., Tokyo, Japan) was orally loaded. Blood samples were collected preload (defined as 0 h) and 2 and 4 h after fat load, and plasma TG levels were measured. The area under the curve (AUC) of chylomicron TG (CM/TG), which is synthesized from dietary fat in the small intestine, was calculated by subtracting the plasma TG levels of the meal‐unloaded group from that of the meal‐loaded group.

C57BL/6J mice [2] = experiment: Food choice test (HFD vs LFD); assay type: in vivo, mouse; conditions: overnight, CpdB 10 mg/kg oral, liraglutide 0.04 mg/kg sc
Experimental: The choice between HFD (D12451; Research Diets, Inc.) and low‐fat diet (LFD, 10% kcal fat, 3.8 kcal·g^−1; D124510B; Research Diets, Inc.) was assessed in C57BL/6J mice. Following habituation to normal chow, HFD and LFD were presented in separate containers simultaneously, and overnight food intake of each diet was monitored. The mice were divided into groups based on the data of food intake and body weight. Then, vehicle or CpdB (10 mg·kg^−1) was orally administered, and the overnight food intake of each diet was monitored. CpdB was suspended in 0.5% methylcellulose. As a positive control, liraglutide (0.04 mg·kg^−1) dissolved in 10% DMSO/saline was subcutaneously administered.

IC50 (DGAT1 human): 2500 nM
IC50 (DGAT2 human): > 30000 nM
Compound: CC(C)(OC(=O)N[C@H]1CC[C@H](OC(=O)N2CCc3cc(S(=O)(=O)Nc4c(F)cc(Cl)cc4F)cc(N4CCCC4=O)c32)CC1)C(F)(F)F [CpdB]
Plasma CM/TG AUC (0-4 h), AVE (C57BL/6J mice [1]; 3 mg/kg oral at -6.5 h): 3977.6 mg/dLxh
Plasma CM/TG AUC (0-4 h), individual animal (C57BL/6J mice [1]; 3 mg/kg oral at -6.5 h): 3401.5 mg/dLxh and 5885.8 mg/dLxh and 3966.4 mg/dLxh and 3504.4 mg/dLxh and 3174.7 mg/dLxh and 3932.8 mg/dLxh
decrease of plasma CM/TG AUC compared with the vehicle group (C57BL/6J mice [1]; 10 mg/kg oral at -6.5 h): 37%
Plasma CM/TG AUC (0-4 h), AVE (C57BL/6J mice [1]; 10 mg/kg oral at -6.5 h): 4365.7 mg/dLxh
Plasma CM/TG AUC (0-4 h), individual animal (C57BL/6J mice [1]; 10 mg/kg oral at -6.5 h): 5644.3 mg/dLxh and 4575.4 mg/dLxh and 4611.1 mg/dLxh and 3882.4 mg/dLxh and 3535.9 mg/dLxh and 3945.4 mg/dLxh
Plasma CM/TG AUC (0-4 h), individual animal (C57BL/6J mice [1]; 10 mg/kg oral at -16.5 h): 3845.1 mg/dLxh and 6306.3 mg/dLxh and 6722.1 mg/dLxh and 3383.1 mg/dLxh and 3918.6 mg/dLxh and 3231.9 mg/dLxh
Plasma CM/TG AUC (0-4 h), AVE (C57BL/6J mice [1]; 10 mg/kg oral): 4567.8 mg/dLxh
Food intake, energy intake of HFD, AVE (C57BL/6J mice [2]; mean, N=5): 9.74 kcal
Food intake, energy intake of low-fat diet, AVE (C57BL/6J mice [2]; mean, N=5): 0.16 kcal
Food intake, total energy intake, AVE (C57BL/6J mice [2]; mean, N=5): 9.90 kcal
Food intake, energy intake of HFD, individual animal (C57BL/6J mice [2]; single animal values): 9.96 kcal and 11.47 kcal and 8.41 kcal and 8.88 kcal
Food intake, energy intake of low-fat diet, individual animal (C57BL/6J mice [2]; single animal values): 0.23 kcal and 0.00 kcal and 0.34 kcal
Food intake, total energy intake, individual animal (C57BL/6J mice [2]; single animal values): 10.19 kcal and 11.47 kcal and 8.41 kcal and 9.23 kcal
